Results on two compounds are retold here after patent US20090149520A1, “OXAZOLIDINONES CONTAINING OXINDOLES AS ANTIBACTERIAL AGENTS” (PFIZER INC, priority 2006, published 2009).

Holding throughout (format): cell-based
Assay [1] deals with S. aureus UC-76 SA-1. Kind of assay: in vitro antibacterial activity MIC, S. aureus. The settings on record: Staphylococcus aureus, UC76; strain UC-76 SA-1; read-out: MICs S. aureus UC-76 SA-1. An excerpt:
(§1) The in vitro antibacterial activity of the compounds of the present invention may be assessed by following procedures recommended in (1) National Committee for Clinical Laboratory Standards (January 2003), Methods for dilution antimicrobial tests for bacteria that grow aerobically, Approved Standard (6th ed), M7-A6, NCCLS, Wayne, Pa.; (2) National Committee for Clinical Laboratory Standards (March 2001), Methods for antimicrobial susceptibility testing of anaerobic bacteria, Approved Standard (5th ed), M11-A4, NCCLS, Wayne, Pa.; (3) National Committee for Clinical Laboratory Standards (Jan. 2003), MIC testing supplemental tables, M100-S13 (for use with M7-A6), NCCLS, Wayne, Pa.; and (4) Murray P R, Baron E J, Jorgensen J H, et al. Manual of Clinical Microbiology (8th ed) Washington, D.C.: American Society for Microbiology Press, 2003. The antibacterial activity can be presented in the form of MIC value. The MIC value is the lowest concentration of drug, which prevented macroscopically visible growth under the conditions of the test.

In assay [2] the test system is S. pneumoniae SV1 SP-3. The experiment in a line: in vitro antibacterial activity MIC, S. pneumoniae. The settings on record: Streptococcus pneumoniae, SV1SP3; strain SV1 SP-3; read-out: MICs S. pneumoniae SV1 SP-3.
Source text: as §1

The subject of assay [3] is E. faecalis MGH-2 EF 1-1. The experiment in a line: in vitro antibacterial activity MIC, E. faecalis. The settings on record: Enterococcus faecalis, MGH2EF11; strain MGH-2 EF 1-1; read-out: MICs E. faecalis MGH-2 EF 1-1.
Source text: as §1

Values after ≈ are worked out from the molar mass of the structure shown.

Turning to `CC(C)N1C(=O)Cc2cc(N3C[C@H](Cn4ccnn4)OC3=O)ccc21` [Example 1, (R)-5-((1H-1,2,3-triazol-1-yl)methyl)-3-(1-isopropyl-2 oxoindolin-5-yl)oxazolidin-2-one], the MIC in assay [1], in assay [2] and in assay [3] was 8 µg/mL (≈ 23.4 µM) each time.

On to `CCN1C(=O)Cc2cc(N3C[C@H](Cn4ccnn4)OC3=O)ccc21` [Example 2], for which the MIC in assay [1] worked out at 4 µg/mL (≈ 12.2 µM); in assay [2], 4 µg/mL (≈ 12.2 µM); in assay [3], 8 µg/mL (≈ 24.4 µM).
